Measurements as given in PubChem BioAssay (NCI).
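Where inhibition never reached the appropriate level, the endpoint shown equals the highest concentration tested. Otherwise, values were interpolated linearly from a five-concentration, 48-hour dose response in 96-well plates. The concentration for full growth arrest is given as TGI.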

Columns and labels:
Assay in all cases: NCI-60 cell line screen, 48 h
[1] = tested on: MOLT-4 leukemia
[2] = tested on: OVCAR-8 ovarian
[3] = tested on: UACC-257 melanoma
[4] = tested on: NCI-H23 lung
[5] = tested on: DU-145 prostate
[6] = tested on: K-562 leukemia
[7] = tested on: ACHN renal
[8] = tested on: IGROV1 ovarian
[9] = tested on: SK-MEL-28 melanoma
[10] = tested on: RXF 393 renal
[11] = tested on: U251 CNS
[12] = tested on: SNB-75 CNS
[13] = tested on: NCI-H460 lung
[14] = tested on: HS 578T breast
[15] = tested on: UACC-62 melanoma
[16] = tested on: SF-268 CNS
[17] = tested on: HCC-2998 colon
[18] = tested on: NCI-H522 lung

| SMILES | TGI [1] [µM] | TGI [2] [µM] | TGI [3] [µM] | TGI [4] [µM] | TGI [5] [µM] | TGI [6] [µM] | TGI [7] [µM] | TGI [8] [µM] | TGI [9] [µM] | TGI [10] [µM] | TGI [11] [µM] | TGI [12] [µM] | TGI [13] [µM] | TGI [14] [µM] | TGI [15] [µM] | TGI [16] [µM] | TGI [17] [µM] | TGI [18] [µM] |
| --- | --- | --- | --- | --- | --- | --- | --- | --- | --- | --- | --- | --- | --- | --- | --- | --- | --- | --- |
| O=C(N/N=C\c1ccc([N+](=O)[O-])cc1)c1ccccc1Nc1ccccc1C(=O)N/N=C/c1ccc([N+](=O)[O-])cc1 | > 100 | > 100 | > 100 | > 100 | > 100 | > 100 | > 100 | > 100 | > 100 | > 100 | > 100 | > 100 | > 100 | > 100 | > 100 | > 100 | > 100 | – |
| O=C(CN1CCOCC1)CC(O)(C(F)(F)F)C(F)(F)F | > 100 | > 100 | > 100 | > 100 | > 100 | > 100 | > 100 | > 100 | > 100 | > 100 | > 100 | > 100 | – | > 100 | > 100 | – | > 100 | > 100 |
| Cc1ccc(Nc2nc(=O)[nH]c(=O)[nH]2)cc1N=[N+]=[N-] | > 100 | > 100 | > 100 | > 100 | > 100 | > 100 | > 100 | > 100 | – | > 100 | – | > 100 | – | > 100 | > 100 | > 100 | > 100 | > 100 |
| O=C1CCCCC[C@]12SC[C@H]1CON=C12 | > 100 | > 100 | > 100 | > 100 | > 100 | > 100 | > 100 | > 100 | > 100 | 77.1 | 42.2 | – | > 100 | > 100 | 71.7 | – | > 100 | 69.6 |
| O=CC1OC(=O)c2cc(O)c(O)c(O)c2-c2c(cc(O)c(O)c2O)C(=O)OC1C(O)C(O)CO (stereo not drawn) | 56.8 | 45.8 | > 100 | > 100 | > 100 | 44.2 | > 100 | > 100 | > 100 | > 100 | 32.3 | > 100 | > 100 | > 100 | – | > 100 | > 100 | > 100 |
| COc1ccc(-n2c3c(c4c(CN(C)C)c(O)ccc42)C(=O)c2ccccc2C3=O)cc1 | > 100 | 20.5 | 41.2 | 29.6 | 29.2 | 4.62 | 3.9 | 23 | 14.7 | 52.2 | > 100 | – | 26.2 | > 100 | 15.7 | 44.9 | 5.42 | 30.7 |
| COc1cc(/C=C/C(=O)N[C@@H]2C(=O)N3[C@@H]2SC(C)(C)[C@@H]3C(=O)O)cc(OC)c1OC | > 100 | > 100 | > 100 | > 100 | > 100 | > 100 | > 100 | – | > 100 | > 100 | > 100 | > 100 | > 100 | > 100 | > 100 | > 100 | > 100 | > 100 |
| COC(=O)c1ccc(CCc2cc(O)c(Br)cc2O)cc1 | 6.65 | 30.9 | 30.9 | 15.4 | 27.5 | – | 25.9 | 28.5 | 34.4 | 32.9 | 25.8 | > 59.6 | 33.3 | > 100 | 27.1 | 34.1 | 32.9 | 12.3 |
| CSc1nc(O)c(/C=C2\C=Nc3ccccc32)[nH]1 | > 100 | > 100 | > 100 | > 100 | > 100 | > 100 | > 100 | > 100 | > 100 | > 100 | > 100 | > 100 | > 100 | > 100 | > 100 | > 100 | 90.6 | – |
| O=C(OCC1CCCN2CCCCC12)c1ccncc1 (stereo not drawn) | > 100 | > 100 | > 100 | > 100 | > 100 | > 100 | > 100 | > 100 | > 100 | > 100 | > 100 | > 100 | > 100 | > 100 | > 100 | > 100 | > 100 | – |
| CC(=N/NC(=S)N1CCCCC1)/C(C)=N\NC(=S)N1CCCCC1 | > 100 | – | 4.09 | 4.82 | 3.05 | 6.89 | 2.92 | 3.13 | 3.99 | 3.2 | – | 3.14 | 3.6 | 5.76 | – | 3.45 | 3.48 | 4.74 |
| COc1cc(C(=O)Nc2c3ccccc3nc3ccccc23)cc(OC)c1OC | > 100 | > 100 | > 100 | > 100 | > 100 | > 100 | > 100 | > 100 | > 100 | > 100 | > 100 | – | > 100 | > 100 | > 100 | > 82 | > 100 | > 100 |
| CC1(C)N=C(/C=N/O)C(C)(C)N1O | > 100 | > 100 | – | > 100 | > 100 | > 100 | > 100 | > 100 | > 100 | > 100 | > 100 | > 100 | > 100 | > 100 | > 100 | > 100 | > 100 | > 100 |
| O[C@H]1[C@H](O)[C@H](O)CN2CCC[C@@H](O)[C@H]12 | > 100 | > 100 | > 100 | > 100 | > 100 | > 100 | > 100 | > 100 | > 100 | > 100 | > 100 | > 100 | – | > 100 | > 100 | > 100 | > 100 | > 100 |
| Cc1ccc(/C=N/NC2=NCCN2)s1 | > 100 | > 100 | > 100 | > 100 | > 100 | > 100 | > 100 | > 100 | > 100 | > 100 | > 100 | > 100 | – | > 100 | > 100 | > 100 | > 100 | > 100 |
| CCCC#CC(O)(C(=O)OC1CCN(C)CC1)C1CCCCC1 (stereo not drawn) | > 100 | > 100 | > 100 | > 100 | > 100 | > 100 | > 100 | > 100 | > 100 | > 100 | > 100 | > 100 | > 100 | > 100 | > 100 | > 100 | > 100 | – |
| CC1(C)C(=O)C2(OS(=O)(=O)C(F)(F)F)CCC1C2 (stereo not drawn) | > 100 | > 100 | > 100 | > 100 | > 100 | > 100 | > 100 | > 100 | > 100 | > 100 | > 100 | > 100 | > 100 | > 100 | > 100 | > 100 | > 100 | – |
| OCCN=C1c2ccccc2C2C(c3ccccc31)C1c3ccccc3C(=NCCO)c3ccccc3C21 (stereo not drawn) | 27.6 | > 100 | 69.2 | > 100 | 54.3 | 40.2 | 76.9 | 98.5 | 36.4 | 51.8 | 41.3 | 65.9 | 58.3 | 45.7 | 37.5 | > 100 | 40.5 | – |
| Fc1cc(-c2ncc(Cl)cc2Cl)c2cccccc1-2 | – | > 100 | > 100 | > 100 | > 100 | – | > 100 | > 100 | – | > 100 | – | > 100 | > 100 | > 100 | > 100 | > 100 | > 100 | > 100 |
| COc1ccc(N=C2C(=Nc3ccc(OC)cc3)N(S(=O)(=O)c3ccccc3)C(=S)N2c2ccc(OC)cc2)cc1 | > 100 | > 100 | – | > 100 | > 100 | > 100 | > 100 | > 100 | > 100 | > 100 | > 100 | 38.8 | – | > 100 | > 100 | > 100 | > 100 | > 100 |
| CCOC(=O)C(C)(C)/C=C\C(Cl)=C(Cl)Cl | > 100 | > 100 | > 100 | > 100 | > 100 | > 100 | > 100 | > 100 | > 100 | > 100 | – | > 100 | – | > 100 | > 100 | > 100 | > 100 | > 100 |
| COc1ccccc1N=N/C(=N/NC(=O)c1ccc(C)cc1)c1ccc(N(CCC#N)CCC#N)cc1OC | 49.6 | > 100 | > 100 | > 100 | > 100 | > 100 | 55.9 | > 100 | > 100 | > 100 | > 100 | – | > 100 | > 100 | > 100 | 77.8 | > 100 | 79 |
